Paper PMC5564600 (Oncotarget, 2017)
Like-named read-outs stand apart in the source and are kept apart here.

Experiments:
Assay in all cases: biochemical
Assay type in all cases: binding
panel of 442 kinases [1] = biological target: T1, panel of 442 kinases (Homo sapiens, UniProt Q99640); details: kinase PKMYT1; for remaining activity at 1 µM: read-out: PKMYT1 (% of control at 1 µM)
T1 construct: purchased Ambit Biosciences (scanMAXX KINOMEscan)
T1 sequence (Q99640 1-499): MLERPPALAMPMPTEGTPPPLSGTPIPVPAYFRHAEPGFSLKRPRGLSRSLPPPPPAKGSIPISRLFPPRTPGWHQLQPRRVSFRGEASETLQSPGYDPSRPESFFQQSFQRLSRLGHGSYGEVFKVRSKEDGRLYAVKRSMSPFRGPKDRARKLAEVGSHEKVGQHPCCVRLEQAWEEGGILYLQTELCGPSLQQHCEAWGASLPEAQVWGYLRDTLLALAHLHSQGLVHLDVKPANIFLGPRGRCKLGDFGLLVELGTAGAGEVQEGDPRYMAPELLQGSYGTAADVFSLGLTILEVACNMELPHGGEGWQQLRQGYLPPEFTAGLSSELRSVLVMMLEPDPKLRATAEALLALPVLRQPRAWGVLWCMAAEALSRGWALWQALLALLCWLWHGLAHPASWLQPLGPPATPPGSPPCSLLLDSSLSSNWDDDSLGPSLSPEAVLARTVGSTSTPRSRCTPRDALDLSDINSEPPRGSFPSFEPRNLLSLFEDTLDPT

panel of 442 kinases [2] = biological target: T2, panel of 442 kinases (Homo sapiens, UniProt Q6DT37); details: DMPK2; for remaining activity at 1 µM: read-out: % of control at 1 µM
T2 construct: purchased Ambit Biosciences (scanMAXX KINOMEscan)

panel of 442 kinases [3] = biological target: T3, panel of 442 kinases (Homo sapiens, UniProt Q06187); details: BTK; for remaining activity at 1 µM: read-out: % of control at 1 µM
T3 construct: purchased Ambit Biosciences (scanMAXX KINOMEscan)

panel of 442 kinases [4] = biological target: T4, panel of 442 kinases (Homo sapiens, UniProt Q96GD4); details: AURKB; for remaining activity at 1 µM: read-out: % of control at 1 µM
T4 construct: purchased Ambit Biosciences (scanMAXX KINOMEscan)

panel of 442 kinases [5] = biological target: T5, panel of 442 kinases (Homo sapiens, UniProt Q9P2K8, S808G); details: kinase GCN2(Kin.Dom.2,S808G); for remaining activity at 1 µM: read-out: % of control at 1 µM
T5 construct: purchased Ambit Biosciences (scanMAXX KINOMEscan)

panel of 442 kinases [6] = biological target: T6, panel of 442 kinases (Homo sapiens, UniProt P00519, F317I); details: for remaining activity at 1 µM: read-out: % of control at 1 µM; for remaining activity at 10 µM: read-out: % of control at 10 µM
T6 construct: purchased Ambit Biosciences (scanMAXX KINOMEscan)

panel of 442 kinases [7] = biological target: T7, panel of 442 kinases (Homo sapiens, UniProt Q56UN5); details: kinase YSK4; for remaining activity at 1 µM: read-out: YSK4 (% of control at 1 µM)
T7 construct: purchased Ambit Biosciences (scanMAXX KINOMEscan)
T7 sequence (Q56UN5 1-1328): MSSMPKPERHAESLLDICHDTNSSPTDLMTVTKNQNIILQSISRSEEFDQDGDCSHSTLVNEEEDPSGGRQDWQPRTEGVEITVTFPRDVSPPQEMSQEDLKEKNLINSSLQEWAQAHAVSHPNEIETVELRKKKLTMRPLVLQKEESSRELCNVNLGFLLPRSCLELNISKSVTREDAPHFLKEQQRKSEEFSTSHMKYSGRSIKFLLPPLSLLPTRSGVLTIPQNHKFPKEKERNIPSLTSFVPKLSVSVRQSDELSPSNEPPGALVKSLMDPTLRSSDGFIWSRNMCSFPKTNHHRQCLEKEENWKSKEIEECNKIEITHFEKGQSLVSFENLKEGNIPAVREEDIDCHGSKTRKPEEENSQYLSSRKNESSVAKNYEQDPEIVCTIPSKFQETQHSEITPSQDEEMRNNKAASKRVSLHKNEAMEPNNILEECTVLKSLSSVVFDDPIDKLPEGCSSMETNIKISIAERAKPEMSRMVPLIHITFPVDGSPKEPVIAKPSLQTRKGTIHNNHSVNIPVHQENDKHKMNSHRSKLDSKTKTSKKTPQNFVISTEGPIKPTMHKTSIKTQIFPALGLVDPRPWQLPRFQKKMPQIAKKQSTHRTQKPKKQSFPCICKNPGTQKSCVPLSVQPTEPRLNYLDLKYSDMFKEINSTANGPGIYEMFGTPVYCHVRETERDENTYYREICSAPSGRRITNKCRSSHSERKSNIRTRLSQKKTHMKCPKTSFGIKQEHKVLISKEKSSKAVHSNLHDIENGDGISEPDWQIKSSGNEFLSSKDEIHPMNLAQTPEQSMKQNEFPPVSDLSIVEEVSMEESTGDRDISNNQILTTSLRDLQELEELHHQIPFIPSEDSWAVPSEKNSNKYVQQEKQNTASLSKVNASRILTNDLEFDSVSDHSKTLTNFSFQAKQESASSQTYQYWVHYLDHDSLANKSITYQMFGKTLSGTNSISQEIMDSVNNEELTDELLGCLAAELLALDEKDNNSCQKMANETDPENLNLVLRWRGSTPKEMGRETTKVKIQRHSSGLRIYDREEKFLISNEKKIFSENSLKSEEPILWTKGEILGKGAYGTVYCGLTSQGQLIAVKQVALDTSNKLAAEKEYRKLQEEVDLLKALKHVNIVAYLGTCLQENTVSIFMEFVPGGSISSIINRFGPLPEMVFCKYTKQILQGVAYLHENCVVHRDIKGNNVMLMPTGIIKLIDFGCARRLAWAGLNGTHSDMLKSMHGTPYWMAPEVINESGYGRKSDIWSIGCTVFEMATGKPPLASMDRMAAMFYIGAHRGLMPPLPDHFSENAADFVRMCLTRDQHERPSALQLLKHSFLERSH

panel of 442 kinases [8] = biological target: T8, panel of 442 kinases (Homo sapiens, UniProt P54646); details: AMPK-alpha2; for remaining activity at 1 µM: read-out: % of control at 1 µM
T8 construct: purchased Ambit Biosciences (scanMAXX KINOMEscan)

panel of 442 kinases [9] = biological target: T9, panel of 442 kinases (Homo sapiens, UniProt Q16659); details: ERK3; for remaining activity at 1 µM: read-out: % of control at 1 µM
T9 construct: purchased Ambit Biosciences (scanMAXX KINOMEscan)

panel of 442 kinases [10] = biological target: T10, panel of 442 kinases (Homo sapiens, UniProt P10721, L576P); details: kinase KIT(L576P); for remaining activity at 1 µM: read-out: % of control at 1 µM
T10 construct: purchased Ambit Biosciences (scanMAXX KINOMEscan)

panel of 442 kinases [11] = biological target: T11, panel of 442 kinases (Homo sapiens, UniProt P22607); details: FGFR3; for remaining activity at 1 µM: read-out: % of control at 1 µM
T11 construct: purchased Ambit Biosciences (scanMAXX KINOMEscan)

[12] = 10 µM, read-out: % of control at 10 µM

T9 sequence (Q16659 whole entry): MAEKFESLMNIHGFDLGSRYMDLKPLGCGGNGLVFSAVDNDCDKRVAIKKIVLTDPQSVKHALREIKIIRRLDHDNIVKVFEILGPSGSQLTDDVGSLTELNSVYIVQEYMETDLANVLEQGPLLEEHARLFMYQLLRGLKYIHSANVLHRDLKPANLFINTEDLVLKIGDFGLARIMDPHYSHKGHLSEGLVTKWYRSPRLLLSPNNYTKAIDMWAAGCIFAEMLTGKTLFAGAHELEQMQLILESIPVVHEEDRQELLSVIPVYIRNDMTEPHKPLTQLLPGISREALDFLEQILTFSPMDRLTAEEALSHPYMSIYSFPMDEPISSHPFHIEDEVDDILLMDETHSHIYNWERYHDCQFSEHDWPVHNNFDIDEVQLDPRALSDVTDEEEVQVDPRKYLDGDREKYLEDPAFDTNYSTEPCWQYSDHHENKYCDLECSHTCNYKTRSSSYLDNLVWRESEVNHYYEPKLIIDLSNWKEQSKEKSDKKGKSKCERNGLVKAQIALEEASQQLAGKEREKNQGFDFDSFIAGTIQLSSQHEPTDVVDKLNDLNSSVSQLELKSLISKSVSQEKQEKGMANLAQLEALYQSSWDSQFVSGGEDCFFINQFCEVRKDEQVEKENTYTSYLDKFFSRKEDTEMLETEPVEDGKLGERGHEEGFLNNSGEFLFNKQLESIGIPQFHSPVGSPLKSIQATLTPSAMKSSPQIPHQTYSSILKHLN
T4 sequence (Q96GD4 whole entry): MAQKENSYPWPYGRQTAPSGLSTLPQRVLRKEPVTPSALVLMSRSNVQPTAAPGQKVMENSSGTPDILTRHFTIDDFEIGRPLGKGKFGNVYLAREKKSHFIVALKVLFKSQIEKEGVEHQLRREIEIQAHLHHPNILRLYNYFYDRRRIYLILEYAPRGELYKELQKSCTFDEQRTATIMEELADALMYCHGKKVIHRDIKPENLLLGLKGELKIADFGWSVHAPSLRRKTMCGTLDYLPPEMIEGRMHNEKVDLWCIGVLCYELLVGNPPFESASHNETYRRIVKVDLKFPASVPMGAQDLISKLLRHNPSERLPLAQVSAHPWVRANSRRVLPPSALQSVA
T8 sequence (P54646 whole entry): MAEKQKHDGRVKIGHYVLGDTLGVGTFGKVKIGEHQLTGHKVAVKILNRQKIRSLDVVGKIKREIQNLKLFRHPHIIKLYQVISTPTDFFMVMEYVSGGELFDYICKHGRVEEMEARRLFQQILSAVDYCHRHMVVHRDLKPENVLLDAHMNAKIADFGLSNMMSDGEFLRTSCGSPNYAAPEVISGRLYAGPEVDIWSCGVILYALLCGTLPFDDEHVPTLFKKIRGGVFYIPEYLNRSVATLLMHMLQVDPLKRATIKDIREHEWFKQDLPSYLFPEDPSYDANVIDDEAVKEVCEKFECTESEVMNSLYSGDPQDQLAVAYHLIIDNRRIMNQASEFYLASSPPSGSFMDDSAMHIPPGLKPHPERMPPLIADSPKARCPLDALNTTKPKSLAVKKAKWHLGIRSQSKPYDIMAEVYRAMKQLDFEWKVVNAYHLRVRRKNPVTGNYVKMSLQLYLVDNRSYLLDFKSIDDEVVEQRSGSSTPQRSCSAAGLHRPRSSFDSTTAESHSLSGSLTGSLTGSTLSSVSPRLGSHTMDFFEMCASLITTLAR
T2 sequence (Q6DT37 whole entry): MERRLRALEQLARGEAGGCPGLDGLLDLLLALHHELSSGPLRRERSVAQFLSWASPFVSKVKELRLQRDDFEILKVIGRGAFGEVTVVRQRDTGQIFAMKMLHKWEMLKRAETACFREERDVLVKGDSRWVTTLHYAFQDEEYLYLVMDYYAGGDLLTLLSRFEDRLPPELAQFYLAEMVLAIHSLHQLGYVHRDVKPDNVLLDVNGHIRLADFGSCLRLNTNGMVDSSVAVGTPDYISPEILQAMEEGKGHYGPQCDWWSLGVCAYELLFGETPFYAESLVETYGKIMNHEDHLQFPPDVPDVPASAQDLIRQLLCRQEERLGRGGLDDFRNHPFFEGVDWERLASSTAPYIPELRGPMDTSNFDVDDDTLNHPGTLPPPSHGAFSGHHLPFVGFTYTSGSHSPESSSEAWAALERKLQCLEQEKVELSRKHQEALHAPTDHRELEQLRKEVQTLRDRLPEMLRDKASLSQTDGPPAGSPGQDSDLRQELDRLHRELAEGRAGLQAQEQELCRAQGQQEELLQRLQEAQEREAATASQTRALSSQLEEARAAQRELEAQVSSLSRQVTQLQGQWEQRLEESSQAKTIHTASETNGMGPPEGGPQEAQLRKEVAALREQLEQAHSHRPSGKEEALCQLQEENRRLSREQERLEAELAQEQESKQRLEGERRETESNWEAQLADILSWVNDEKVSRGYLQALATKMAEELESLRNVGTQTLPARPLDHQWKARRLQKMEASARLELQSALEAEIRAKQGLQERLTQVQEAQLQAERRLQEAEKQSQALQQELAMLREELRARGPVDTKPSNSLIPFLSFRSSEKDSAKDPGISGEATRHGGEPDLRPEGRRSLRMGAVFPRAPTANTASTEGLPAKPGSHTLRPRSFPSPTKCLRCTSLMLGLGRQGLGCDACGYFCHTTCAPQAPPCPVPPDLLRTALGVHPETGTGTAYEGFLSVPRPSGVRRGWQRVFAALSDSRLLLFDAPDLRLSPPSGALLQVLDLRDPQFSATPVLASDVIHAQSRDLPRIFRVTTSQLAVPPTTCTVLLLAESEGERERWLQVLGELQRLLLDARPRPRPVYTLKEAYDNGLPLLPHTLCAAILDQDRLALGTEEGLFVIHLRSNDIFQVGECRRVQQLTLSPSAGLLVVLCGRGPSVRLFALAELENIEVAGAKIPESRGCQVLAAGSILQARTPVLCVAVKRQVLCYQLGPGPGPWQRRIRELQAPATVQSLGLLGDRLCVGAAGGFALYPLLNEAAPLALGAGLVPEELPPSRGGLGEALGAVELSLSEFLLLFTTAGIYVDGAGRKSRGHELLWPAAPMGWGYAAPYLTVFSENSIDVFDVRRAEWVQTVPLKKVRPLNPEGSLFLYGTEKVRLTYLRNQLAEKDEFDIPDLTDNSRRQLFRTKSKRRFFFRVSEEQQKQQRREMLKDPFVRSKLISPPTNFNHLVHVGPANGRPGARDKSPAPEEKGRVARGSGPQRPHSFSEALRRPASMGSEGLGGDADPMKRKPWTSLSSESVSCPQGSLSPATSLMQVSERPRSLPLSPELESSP
T6 sequence (P00519 whole entry F317I): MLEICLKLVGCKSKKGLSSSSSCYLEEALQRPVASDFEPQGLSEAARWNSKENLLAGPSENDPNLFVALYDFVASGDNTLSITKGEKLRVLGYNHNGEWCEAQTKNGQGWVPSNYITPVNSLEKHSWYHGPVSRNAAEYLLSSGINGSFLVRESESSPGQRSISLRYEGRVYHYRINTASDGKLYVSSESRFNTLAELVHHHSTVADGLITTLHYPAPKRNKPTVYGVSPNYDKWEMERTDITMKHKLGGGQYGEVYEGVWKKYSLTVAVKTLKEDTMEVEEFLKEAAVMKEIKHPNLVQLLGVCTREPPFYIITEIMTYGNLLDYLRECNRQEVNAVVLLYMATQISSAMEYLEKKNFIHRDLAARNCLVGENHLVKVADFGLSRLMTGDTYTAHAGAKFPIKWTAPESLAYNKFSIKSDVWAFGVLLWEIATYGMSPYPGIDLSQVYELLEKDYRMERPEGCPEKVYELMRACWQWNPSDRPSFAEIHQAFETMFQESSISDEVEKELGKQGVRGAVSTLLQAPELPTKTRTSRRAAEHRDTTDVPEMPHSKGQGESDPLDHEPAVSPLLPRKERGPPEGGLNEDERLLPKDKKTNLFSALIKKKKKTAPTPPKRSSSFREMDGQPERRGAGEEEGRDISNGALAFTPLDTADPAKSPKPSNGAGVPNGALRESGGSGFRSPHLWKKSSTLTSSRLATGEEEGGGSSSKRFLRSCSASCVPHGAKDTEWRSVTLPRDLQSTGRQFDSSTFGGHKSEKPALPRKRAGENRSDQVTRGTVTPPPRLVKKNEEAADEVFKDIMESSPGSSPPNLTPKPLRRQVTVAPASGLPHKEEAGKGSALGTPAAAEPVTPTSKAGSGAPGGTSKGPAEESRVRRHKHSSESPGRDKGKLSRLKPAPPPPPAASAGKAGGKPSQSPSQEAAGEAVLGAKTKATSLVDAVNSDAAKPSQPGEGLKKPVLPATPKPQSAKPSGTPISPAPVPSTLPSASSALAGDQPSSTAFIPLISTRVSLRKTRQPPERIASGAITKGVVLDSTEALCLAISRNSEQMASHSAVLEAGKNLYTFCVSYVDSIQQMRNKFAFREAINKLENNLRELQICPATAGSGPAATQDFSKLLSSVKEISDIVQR
T3 sequence (Q06187 whole entry): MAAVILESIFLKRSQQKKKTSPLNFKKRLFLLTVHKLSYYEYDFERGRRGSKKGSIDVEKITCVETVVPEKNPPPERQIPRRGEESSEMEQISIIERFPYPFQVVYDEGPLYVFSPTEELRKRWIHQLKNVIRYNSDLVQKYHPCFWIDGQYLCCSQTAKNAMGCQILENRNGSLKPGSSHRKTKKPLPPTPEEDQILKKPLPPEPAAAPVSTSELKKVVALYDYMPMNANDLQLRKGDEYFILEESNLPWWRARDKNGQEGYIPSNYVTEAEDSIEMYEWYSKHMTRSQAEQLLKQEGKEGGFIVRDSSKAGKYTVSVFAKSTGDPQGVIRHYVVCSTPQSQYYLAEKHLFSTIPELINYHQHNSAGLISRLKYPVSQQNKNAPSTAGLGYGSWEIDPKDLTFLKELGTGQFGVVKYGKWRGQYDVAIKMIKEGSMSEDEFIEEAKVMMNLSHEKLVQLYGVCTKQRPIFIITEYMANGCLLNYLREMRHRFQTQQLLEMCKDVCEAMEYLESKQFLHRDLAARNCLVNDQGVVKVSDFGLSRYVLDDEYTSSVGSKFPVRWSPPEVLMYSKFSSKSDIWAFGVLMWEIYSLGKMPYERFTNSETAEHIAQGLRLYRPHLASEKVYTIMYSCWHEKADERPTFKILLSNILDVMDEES

Row | Structure (SMILES) | remaining activity at 1 µM (panel of 442 kinases [1]) [%] | remaining activity at 1 µM (panel of 442 kinases [2]) [%] | remaining activity at 1 µM (panel of 442 kinases [3]) [%] | remaining activity at 1 µM (panel of 442 kinases [4]) [%] | remaining activity at 1 µM (panel of 442 kinases [5]) [%] | remaining activity at 1 µM (panel of 442 kinases [6]; ABL1(F317I)-nonphosphorylated) [%] | remaining activity at 1 µM (panel of 442 kinases [6]; ABL1(F317I)-phosphorylated) [%] | remaining activity at 1 µM (panel of 442 kinases [7]) [%] | remaining activity at 1 µM (panel of 442 kinases [8]) [%] | remaining activity at 1 µM (panel of 442 kinases [9]) [%] | remaining activity at 1 µM (panel of 442 kinases [10]) [%] | remaining activity at 1 µM (panel of 442 kinases [11]) [%] | other results
1 | Nc1cc(C(F)(F)F)c(-c2cc(N3CCOCC3)nc(N3CCOCC3)n2)cn1 [Buparlisib] | 100 | 100 | 71 | 93 | 100 | 100 | 78 | 72 | 100 | 96 | 80 | 100 | remaining activity at 10 µM (panel of 442 kinases [1]; 10 µM, read-out: PKMYT1 (% of control at 10 µM)): 100%; remaining activity at 10 µM (panel of 442 kinases [2]; [12]): 100%; remaining activity at 10 µM (panel of 442 kinases [3]; [12]): 89%; remaining activity at 10 µM (panel of 442 kinases [4]; [12]): 100%; remaining activity at 10 µM (panel of 442 kinases [5]; [12]): 100%; remaining activity at 10 µM (panel of 442 kinases [6]; ABL1(F317I)-nonphosphorylated): 100%; remaining activity at 10 µM (panel of 442 kinases [6]; ABL1(F317I)-phosphorylated): 100%; remaining activity at 10 µM (panel of 442 kinases [7]; 10 µM, read-out: YSK4 (% of control at 10 µM)): 78%; remaining activity at 10 µM (panel of 442 kinases [8]; [12]): 100%; remaining activity at 10 µM (panel of 442 kinases [9]; [12]): 99%; remaining activity at 10 µM (panel of 442 kinases [10]; [12]): 24%; remaining activity at 10 µM (panel of 442 kinases [11]; [12]): 100%
2 | Cn1c(=O)n(-c2ccc(C(C)(C)C#N)cc2)c2c3cc(-c4cnc5ccccc5c4)ccc3ncc21 [Dactolisib, 2-methyl-2-[4-(3-methyl-2-oxo-8-quinolin-3-yl-2,3-dihydroimidazo[4,5-c]quinolin-1-yl)-phenyl] propionitrile] | 75 | 81 |  |  | 87 | 100 | 100 | 28 | 100 | 97 | 59 | 100 | 
3 | COc1ncc(-c2ccc3nccc(-c4ccnnc4)c3c2)cc1NS(=O)(=O)c1ccc(F)cc1F [Omipalisib] | 81 | 100 | 100 | 100 | 100 | 100 | 100 | 77 | 99 | 85 | 90 | 87 | 
4 | FC(F)c1nc2ccccc2n1-c1nc(N2CCOCC2)nc(N2CCOCC2)n1 [ZSTK474, 2-(difluoromethyl)-1-[4,6-di(4-morpholinyl)-1,3,5-triazin-2-yl]-1H-benzimidazole] | 72 | 88 | 100 | 90 | 89 | 100 | 88 | 100 | 100 | 100 | 100 | 100 | 
